Assay results reported in ChEMBL document CHEMBL1125999 (Bioorg Med Chem Lett, 1991).

Legend:
[1] = molecular target: D(1A) dopamine receptor (Bos taurus, UniProt Q95136); experiment: In vitro binding affinity towards Dopamine D1 receptor using [3H]-SCH- 23390 as radioligand
[2] = molecular target: D(2) dopamine receptor (Bos taurus, UniProt P20288); experiment: In vitro binding affinity towards Dopamine D2 receptor using [3H]spiperone as radioligand
[3] = Dissociation constant was evaluated; format: physicochemical

Chain of D(1A) dopamine receptor (Q95136 whole entry): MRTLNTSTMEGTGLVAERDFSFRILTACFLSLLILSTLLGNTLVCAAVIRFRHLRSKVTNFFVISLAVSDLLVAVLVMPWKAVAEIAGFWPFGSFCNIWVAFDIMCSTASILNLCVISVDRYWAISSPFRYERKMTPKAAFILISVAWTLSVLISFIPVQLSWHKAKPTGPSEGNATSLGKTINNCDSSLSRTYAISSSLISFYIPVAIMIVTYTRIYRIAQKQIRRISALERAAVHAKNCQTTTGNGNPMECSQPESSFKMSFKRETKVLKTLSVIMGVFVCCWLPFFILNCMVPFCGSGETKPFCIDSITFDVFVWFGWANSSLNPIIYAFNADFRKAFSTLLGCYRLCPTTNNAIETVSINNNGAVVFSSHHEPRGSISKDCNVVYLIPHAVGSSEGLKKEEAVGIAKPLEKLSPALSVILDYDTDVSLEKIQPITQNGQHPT
Chain of D(2) dopamine receptor (P20288 whole entry): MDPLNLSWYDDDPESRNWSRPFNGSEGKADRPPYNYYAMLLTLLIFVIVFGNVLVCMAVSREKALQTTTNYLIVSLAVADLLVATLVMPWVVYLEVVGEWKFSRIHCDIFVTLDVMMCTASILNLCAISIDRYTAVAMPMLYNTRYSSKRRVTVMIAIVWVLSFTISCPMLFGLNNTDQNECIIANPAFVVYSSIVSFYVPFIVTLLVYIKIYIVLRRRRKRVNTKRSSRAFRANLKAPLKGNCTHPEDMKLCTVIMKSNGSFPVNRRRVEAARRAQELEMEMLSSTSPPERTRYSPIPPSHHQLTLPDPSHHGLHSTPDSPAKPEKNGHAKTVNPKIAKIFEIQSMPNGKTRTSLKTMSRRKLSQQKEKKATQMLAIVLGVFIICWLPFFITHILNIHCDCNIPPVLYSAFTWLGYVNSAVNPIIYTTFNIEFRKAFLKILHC

IC50 [1]	pKa [3]	Compound	IC50 [2]
> 100 µM	9.5	CCCN(CCC)CCc1ccc2[nH]c(=O)c(=O)[nH]c2c1	3 µM
> 100 µM		CCCN(CCC)CCc1ccc2[nH]c(O)nc2c1	> 100 µM
> 100 µM	9.8	CCCN(CCC)CCc1ccc2[nH]c(S)nc2c1	1 µM
0.2 µM		NCCc1ccc(O)c(O)c1 [DOPAMINE]	

The remaining lines, values behind:

Compound	IC50 [1]	pKa [3]	IC50 [2]
CCCN(CCC)CCc1ccc(NC(=O)C(F)(F)F)c(NC(=O)C(F)(F)F)c1	> 100 µM		> 100 µM
CCCN(CCC)CCc1ccc(NC(C)=O)c(NC(C)=O)c1	> 100 µM		> 100 µM
CCCN(CCC)CCc1ccc2nn[nH]c2c1	> 100 µM		50 µM
